Source: EP1310258A1, “Enantiomers of steroids for the enhancement of memory and cognitive function” (Baulieu, Etienne-Emile, priority 2001, dated 2003)
Counter-ions that a name gives are not always drawn.

Legend:
NMDA receptor [1] = test: Coadministration of steroids with the NMDA receptor antagonist AP5, Y-maze recognition performance, mice; assay type: in vivo; conditions: for memory performances when coadministered with AP5 compared to the group treated with the steroid alone: AP5 2 nmol ICV together with PREGS 5.0 nmol or ent-PREGS 5.0 nmol (so in the source); for recognition performances of steroid alone compared with vehicle-controls: ICV effective doses alone (PREGS 5.0 nmol, ent-PREGS 5.0 nmol as printed), P < 0.05
Protocol: (§1) The two-trial memory task based on spontaneous exploration of novelty was adapted from the ones described by Dellu et al. (1992, Brain Res., 588, 132-9) in rats and by Ladurelle et al. (2000, Brain Res., 858, 371-9) in mice.
(§2) Experiments were performed in a gray polyvinychloride Y-maze. The size of each arm was 40 cm long, 15 cm wide and 35 cm high for rats, and 30 cm long, 10 cm wide and 17 cm high for mice. The floor of the maze was covered with odor-saturated sawdust which was mixed after each trial. The maze was placed in a sound-attenuated room under dim illumination. Numerous visual cues were placed on the walls of the testing room and kept constant during the entire behavioral testing..
(§3) The test consisted of two trials, separated by a 6-h intertrial interval. During the first trial (acquisition phase), one arm of the Y-maze (subsequently called novel arm) was closed with a guillotine door, thus allowing the animal to explore only the other two arms, during 5 min and 3 min for rats and mice, respectively. During the second trial (retention phase), the animals had access to the three arms for 5 min. The time spent in each arm of the maze was recorded manually every minute. Recognition was assumed to have occurred when the animal spent more time in the novel arm compared with the familiar ones. The total number of arm visits provided a measure of general motor activity.
(§4) A between-subjects design was used where each observation was made for a separate animal. Data were reported as the amount of time spent in the novel arm relative to the total duration of visits in the three arms (novel/total x 100) during the first 3 min.
(§5) They were expressed as mean ± SEM and analyzed by using one-way ANOVA followed by Newmann-Keuls posthoc test. Significance was defined as P<0.05 or P<0.01.
(§6) The effects of the ICV injection of AP5, at ICV doses of 2 and 10 nmol in mice and rats, respectively, was studied on the memory-enhancing effects of PREGS (0.5 nmol in rats and 5.0 nmol in mice) and ent-PREGS (0.05 nmol in rats and 5.0 nmol in mice).

NMDA receptor [2] = test: Coadministration of steroids with the NMDA receptor antagonist AP5, Y-maze recognition performance, rats; assay type: in vivo; conditions: for memory performances when coadministered with AP5 compared to the group treated with the steroid alone: AP5 10 nmol ICV together with PREGS 0.5 nmol or ent-PREGS 0.05 nmol; for recognition performances of steroid alone compared with vehicle-controls: ICV effective doses alone (PREGS 0.5 nmol, ent-PREGS 0.05 nmol), P < 0.05
Protocol: as §1, §2, §3, §4, §5, §6

steroid sulfatase [3] = biological target: T1, steroid sulfatase (Rattus norvegicus, UniProt P15589); test: In vitro metabolism: steroid sulfatase activity by rat liver microsomes; assay type: in vitro ADME; parameters: 200 µg microsomal proteins prepared from rat brain or liver; from tissue; host or cells: rat liver microsomes; conditions: 37°C, 1 hour; for formation of DHEA (metabolism by sulfatase) / formation of PREG (metabolism by sulfatase): 8 µg steroid with 200 µg rat liver microsomal proteins
T1 sequence (P15589 20-577): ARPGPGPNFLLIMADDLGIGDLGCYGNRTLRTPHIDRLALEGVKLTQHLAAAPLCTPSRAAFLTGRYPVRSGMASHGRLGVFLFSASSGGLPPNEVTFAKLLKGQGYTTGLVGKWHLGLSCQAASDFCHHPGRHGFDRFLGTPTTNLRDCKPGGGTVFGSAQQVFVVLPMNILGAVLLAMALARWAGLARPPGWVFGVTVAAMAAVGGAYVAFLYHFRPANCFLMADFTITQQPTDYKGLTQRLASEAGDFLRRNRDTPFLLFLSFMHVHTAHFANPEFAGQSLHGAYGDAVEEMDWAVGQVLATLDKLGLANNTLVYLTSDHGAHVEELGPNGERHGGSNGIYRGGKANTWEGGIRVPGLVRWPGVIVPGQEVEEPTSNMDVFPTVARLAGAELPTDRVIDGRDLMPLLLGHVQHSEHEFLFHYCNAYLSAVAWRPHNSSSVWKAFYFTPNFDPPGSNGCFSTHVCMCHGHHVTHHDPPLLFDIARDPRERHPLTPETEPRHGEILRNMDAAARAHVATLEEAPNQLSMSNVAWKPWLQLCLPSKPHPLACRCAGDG
Protocol: (§7) The metabolism of PREGS and ent-PREGS was examined after incubation of 8 µg of each steroid with 200 µg microsomal proteins prepared from rat brain or liver, at 37°C for lhour, and the unconjugated PREG was quantified in the brain by gas-chromatography-mass spectrometry (Liere et al., 2000, J. Chromatogr. B Biomed. Sci. Appl. 2000,739:301-12)
(§8) The metabolism of DHEAS and ent-DHEAS was examined after incubation of 8 µg of each steroid with 200 µg microsomal proteins prepared from rat brain or liver, at 37°C for 1hour, and the unconjugated DHEA was quantified in the brain by gas-chromatography-mass spectrometry (Liere et al., 2000, J. Chromatogr. B Biomed. Sci. Appl. 2000,739:301-12)

steroid sulfatase [4] = biological target: T1, steroid sulfatase; test: In vitro metabolism: steroid sulfatase activity by rat brain microsomes; assay type: in vitro ADME; parameters: 200 µg microsomal proteins prepared from rat brain or liver; from tissue; host or cells: rat liver microsomes; conditions: 8 µg steroid with 200 µg rat brain microsomal proteins, 37°C, 1 hour
Protocol: as §7, §8

Swiss mice = test: Two-trial memory task (spatial recognition) in a Y-maze after ICV administration, mice; assay type: in vivo; conditions: ICV immediately after acquisition, 6-h intertrial interval, Newman-Keuls (PREGS P<0.05; ent-PREGS P<0.01)
Protocol: (§9) Male Sprague-Dawley rats and Swiss mice (Janvier, Le Genest St-Isle, France) 2 months of age and weighing 250-300g for rats and 30-32g for mice at the time of surgery were used. They were grouped-housed in a temperature (22°C ± 1°C) and humidity (50% ± 5%) controlled room. They were maintained on a 12-h light/12-h dark (08.00-20.00) schedule and had access to food and water ad libitum.
(§10) Rats were anaesthesized with a mixture of 5% ketamine (Imalgène 1000, Merial, France) and 0.1% acepromazine (Vetranquil 1%,) in saline, administered i.p. at 1.5 ml/kg. Mice were anesthetized with a mixture of 0.5% ketamine and 0.1% xylazine, under the volume of 15 ml/kg.
(§11) Animals were mounted in a stereotaxic and implanted with unilateral stainless steel cannula guides (23-gauge, 7 mm long) above the lateral ventricle, according to the coordinates from the atlas of rats and mice. Cannulas were secured to the skull with stainless steel screws and dental cement.
Animals were used for experiments after a 7-day postrecovery period. Each animal was handled daily for 3 days before the experiments and on the day before each experiment, cannula function was confirmed by gravity flow of isotonic saline. […]
(§12) The test consisted of two trials, separated by a 6-h intertrial interval. […] The time spent in each arm of the maze was recorded manually every minute. […]

steroid sulfatase [5] = biological target: T1, steroid sulfatase; test: In vivo metabolism in rat brain: steroid sulfatase activity (GC-MS of unconjugated PREG); conditions: 5 min after ICV administration of 1µg
Protocol: The metabolism of PREGS and ent-PREGS was investigated 5 min after ICV administration of 1µg of each compound in rat and the unconjugated PREG was quantified in the brain by gas-chromatography-mass spectrometry (Liere et al., 2000, J. Chromatogr. B Biomed Sci. Appl. 2000,739:301-12).

Male Sprague-Dawley rats = test: Two-trial memory task (spatial recognition) in a Y-maze after ICV administration, rats; assay type: in vivo; conditions: ICV immediately after acquisition, 6-h intertrial interval, Newman-Keuls P<0.05
Protocol: as §9, §10, §11
Animals were used for experiments after a 7-day postrecovery period. Each animal was handled daily for 3 days before the experiments and on the day before each experiment, cannula function was confirmed by gravity flow of isotonic saline.
PREGS was obtained from Steraloïds (Newport, RI, Etats-Unis); the steroid enantiomers ent-SPREG et ent-SDHEA were synthesized as previously described (Nilsson et al., 1998, op. cit.). All compounds were dissolved in […] (vehicle)
PREGS was administered iCV at doses of 0 (vehicle), 0.05, 0.25, 0.5, 2.5, 5.0 and 12.5 nmol in rats and of 0 (vehicle), 0.05, 0.25, 0.5, 2.5, 5.0 and 12.5 nmol mice
ent-PREGS was injected ICV at doses of 0 (vehicle), 0.025, 0.05, 0.25, 0.5 nmol in rats and 0 (vehicle), 0.025, 0.05, 0.25, 0.5 and 2.5 nmol in mice.
ent-SDHEA was administered iCV at doses of 0; 0,25; 0,25 nmol in rats.
Drug and control-vehicle solutions were injected unilaterally through the cannula guide. […]
as §12

[6] = rat liver versus brain microsomes, 8 µg steroid, 200 µg protein

Structure (SMILES): NC(CCCP(=O)(O)O)C(=O)O (stereo not drawn) [AP5]
- recognition performance of AP5-treated group versus vehicle-control (NMDA receptor [1]; AP5 alone 2 nmol ICV, P > 0.05): did not significantly differ
- recognition performance of AP5-treated group versus vehicle-control (NMDA receptor [2]; AP5 alone 10 nmol ICV, P > 0.05): did not significantly differ

Structure (SMILES): C[C@]12CC[C@H](OS(=O)(=O)O)CC1=CC[C@@H]1[C@@H]2CC[C@]2(C)C(=O)CC[C@@H]12 [DHEAS, dehydroepiandrosterone sulfate]
- formation of DHEA (metabolism by sulfatase) (steroid sulfatase [3]): metabolized into DHEA
- levels of DHEA in the liver relative to the brain (steroid sulfatase [3]; [6]): 5 times
- formation of DHEA (metabolism by sulfatase) (steroid sulfatase [4]): metabolized into DHEA

Structure (SMILES): CC(=O)C1CCC2C3CC=C4CC(OS(=O)(=O)O)CCC4(C)C3CCC12C (stereo not drawn) [PREGS, pregnenolone sulfate]
- dose at which % time spent in the novel arm / memory performance was significantly increased relative to vehicle-control (Swiss mice): 5.0 nmol
- brain content of PREG compared with saline-injected control rats (steroid sulfatase [5]): signicantly increased
- memory performances when coadministered with AP5 compared to the group treated with the steroid alone (NMDA receptor [1]): significantly reduced
- recognition performances of steroid alone compared with vehicle-controls (NMDA receptor [1]): significantly increased
- formation of PREG (metabolism by sulfatase) (steroid sulfatase [3]): metabolized into PREG
- levels of PREG in the liver relative to the brain (steroid sulfatase [3]; [6]): 4 times
- memory performances when coadministered with AP5 compared to the group treated with the steroid alone (NMDA receptor [2]): significantly reduced
- recognition performances of steroid alone compared with vehicle-controls (NMDA receptor [2]): significantly increased
- formation of PREG (metabolism by sulfatase) (steroid sulfatase [4]): metabolized into PREG
- dose at which % time spent in the novel arm / memory performance was significantly increased relative to vehicle-control (Male Sprague-Dawley rats): 0.5 nmol

Structure (SMILES): C[C@@]12CC[C@@H]3[C@H](CC=C4C[C@H](OS(=O)(=O)O)CC[C@]43C)[C@H]1CCC2=O [ent-DHEAS]
- formation of DHEA (metabolism by sulfatase) (steroid sulfatase [3]): undectectable
- formation of DHEA (metabolism by sulfatase) (steroid sulfatase [4]): undectectable
- dose at which % time spent in the novel arm / memory performance was significantly increased relative to vehicle-control (Male Sprague-Dawley rats): 0,025 nmol

Structure (SMILES): CC(=O)[C@@H]1CC[C@@H]2[C@H]3CC=C4C[C@H](OS(=O)(=O)O)CC[C@@]4(C)[C@@H]3CC[C@]21C [ent-PREGS]
- dose at which % time spent in the novel arm / memory performance was significantly increased relative to vehicle-control (Swiss mice): 0.5 nmol
- brain content of PREG compared with saline-injected control rats (steroid sulfatase [5]): did not significantly differ
- memory performances when coadministered with AP5 compared to the group treated with the steroid alone (NMDA receptor [1]): did not perform differently
- recognition performances of steroid alone compared with vehicle-controls (NMDA receptor [1]): significantly increased
- formation of PREG (metabolism by sulfatase) (steroid sulfatase [3]): undectectable
- memory performances when coadministered with AP5 compared to the group treated with the steroid alone (NMDA receptor [2]): did not perform differently
- recognition performances of steroid alone compared with vehicle-controls (NMDA receptor [2]): significantly increased
- formation of PREG (metabolism by sulfatase) (steroid sulfatase [4]): undectectable
- dose at which % time spent in the novel arm / memory performance was significantly increased relative to vehicle-control (Male Sprague-Dawley rats): 0.05 nmol
